Data reported in ChEMBL document CHEMBL1150739, “Plant antitumor agents, 26. Isolation, structure, and antitumor activity of alkaloids from Anopterus glandulosus” (1987).
Values after ≈ are worked out from the molar mass of the structure shown.

What was measured:
Type in all cases: functional
P388 [1] = test: In vivo antitumor activity against mouse P388 cells at 4.4 mg/kg relative to control
KB = test: Cytotoxicity against human KB cells; conditions: read-out: ED50 (the source's name)
P388 [2] = test: In vivo antitumor activity against mouse P388 cells at 1.5 mg/kg relative to control
P388 [3] = test: In vivo antitumor activity against mouse P388 cells at 3.5 mg/kg relative to control
P388 [4] = test: In vivo antitumor activity against mouse P388 cells at 6 mg/kg relative to control
P388 [5] = test: In vivo antitumor activity against mouse P388 cells at 13 mg/kg relative to control

SMILES: C=C1C[C@]23[C@H]4[C@H]1[C@@H](OC(=O)/C(C)=C/C)[C@@H](OC(=O)/C(C)=C/C)[C@H]2[C@@]12C[C@@H](O)C[C@@](C)(CN(C)[C@H]41)[C@@]2(O)[C@@H](O)[C@@H]3O
- T/C (P388 [1]): 140%
- EC50 (KB): 0.001 µg/mL (≈ 0.00179 µM)

SMILES: C=C1C[C@]23[C@H]4[C@H]1[C@@H](OC(=O)/C(C)=C/C)[C@@H](OC(=O)c1ccccc1)[C@H]2[C@@]12C[C@@H](O)C[C@@](C)(CN(C)[C@H]41)[C@@]2(O)[C@@H](O)[C@@H]3O
- T/C (P388 [2]): 125%
- EC50 (KB): 0.001 µg/mL (≈ 0.00173 µM)

SMILES: C=C1C[C@]23[C@H]4[C@H]1[C@@H](OC(=O)/C(C)=C/C)[C@@H](OC(=O)/C(C)=C/CO)[C@H]2[C@@]12C[C@@H](O)C[C@@](C)(CN(C)[C@H]41)[C@@]2(O)[C@@H](O)[C@@H]3O
- T/C (P388 [3]): 120%
- EC50 (KB): 0.05 µg/mL (≈ 0.0872 µM)

SMILES: C=C1C[C@@]23C[C@H](O)[C@]4(O)[C@@]5(C)C[C@H](O)C[C@@]46[C@@H]2[C@H](O)[C@H](OC(=O)/C(C)=C/C)[C@@H]1[C@H]3[C@H]6N(C)C5
- T/C (P388 [4]): 127%
- EC50 (KB): 1 µg/mL (≈ 2.18 µM)

SMILES: C=C1C[C@@]23C[C@H](O)[C@]4(O)[C@@]5(C)C[C@H](O)C[C@@]46[C@@H]2[C@H](OC(=O)/C(C)=C/C)[C@H](OC(=O)/C(C)=C/C)[C@@H]1[C@H]3[C@H]6N(C)C5 [ANOPTERINE]
- T/C (P388 [5]): 122%
- EC50 (KB): 0.05 µg/mL (≈ 0.0923 µM)
